Reference: PMC4488731 (Viruses, 2015)

Molecular target: T1, EV-A71 2A protease (r2A protease) (Enterovirus A71, UniProt B9VUU3)
T1 sequence (B9VUU3 863-1012 limits assumed): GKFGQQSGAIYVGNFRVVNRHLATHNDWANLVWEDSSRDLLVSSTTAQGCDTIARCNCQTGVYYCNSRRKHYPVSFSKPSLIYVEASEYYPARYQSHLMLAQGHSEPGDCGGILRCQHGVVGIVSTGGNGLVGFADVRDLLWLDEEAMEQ
Format: biochemical
Details: 37 °C, 2 h, 5 µg/mL r2A, 10 µg/mL HRP substrate

Compound `CCOC(=O)C1=C(Nc2cc(C)cc(C)c2)OCC1=O` [CW-33, Ethyl 2-(3′,5′-dimethylanilino)-4-oxo-4,5-dihydrofuran-3-carboxylate] has an IC50 of 53.1 µM.
